According to patent US20190062322A1, “PUMA INHIBITOR, METHOD FOR PREPARATION THEREOF, AND USE THEREOF” (FOURTH MILITARY MEDICAL UNIVERSITY, priority 2016, published 2019):

These molecules were tested against Mcl-1 (Homo sapiens, UniProt Q07820) (assay: FPA competition assay, inhibition of Mcl-1 / FITC-Mcl-BH3 binding). Details: 250 nM Mcl-1 and 250 nM FITC-Mcl-BH3 probe, pH 7.5, cells printed in nM.
Text: Experiment 1 the Inhibition Assay of Compounds 1˜12 to Mcl-1
FPA competition assays were adopted to evaluate the binding affinity of compounds to Mcl-1. The FITC labelled BH3 peptide of Mcl-1 (FITC-Mcl-BH3, FITC-AHx-KALETLRRVGD GVQRNHITAF-NH2) was synthesized and used as fluorescence probe in the FPA competition assays. The binding of FITC-Mcl-BH3 and Mcl-1 can enhance the polarized light. While the binding of compounds and Mcl-1 would reduce the polarization, IC50 is the compound concentration that displaces 50% of the fluorescent ligand from the ligand-receptor complex.
All assays were performed in the assay buffer (pH 7.5) composed of 20 mM Tris, 50 mM NaCl, 3 mM DTT and 2% DMSO. The FPA competition assays were carried out in the 96-well, black, flat-bottom plates (Nunc). To check the interference effects of candidate compounds on the interaction between Mcl-1 and FITC-Mcl-BH3, solutions containing 250 nM Mcl-1 and 250 nM fluorescence probes were titrated with […] selected compounds (0-128 μM, 2-times gradient) dissolved in the assay buffer. The emission fluorescence changes were recorded from 480 to 540 nm by TECAN Infinite M1000 Microplate Spectrophotometer with excitation wavelength being 450 nm. The IC50 were calculated.

Sequence of Mcl-1 (Q07820 whole entry, species assumed): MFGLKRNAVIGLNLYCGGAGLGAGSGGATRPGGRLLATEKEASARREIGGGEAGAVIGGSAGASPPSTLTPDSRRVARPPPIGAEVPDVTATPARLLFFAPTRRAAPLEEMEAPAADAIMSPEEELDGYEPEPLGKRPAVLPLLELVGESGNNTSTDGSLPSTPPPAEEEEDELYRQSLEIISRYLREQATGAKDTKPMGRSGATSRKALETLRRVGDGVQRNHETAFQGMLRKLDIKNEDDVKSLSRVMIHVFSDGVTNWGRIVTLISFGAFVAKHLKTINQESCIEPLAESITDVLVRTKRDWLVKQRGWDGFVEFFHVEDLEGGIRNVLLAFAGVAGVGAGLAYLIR

| Structure (SMILES) | IC50 |
| --- | --- |
| Cc1ccc(C=C2SC(N3CCN(CCO)CC3)=NC2=O)cc1 [Compound 3] | 401 nM |
| COc1ccc(/C=C2\SC(N3CCN(CCO)CC3)=NC2=O)cc1 [Compound 4] | 161 nM |
| O=C1N=C(N2CCN(CCO)CC2)S/C1=C\c1ccc(Cl)cc1 [Compound 5] | 89.7 nM |
| O=C1N=C(N2CCC(CCO)CC2)SC1=Cc1ccccc1 [Compound 8] | 589 nM |
| COc1ccc(C=C2SC(N3CCC(CCO)CC3)=NC2=O)cc1 [Compound 11] | 52.1 nM |
| O=C1N=C(N2CCC(CCO)CC2)SC1=Cc1ccc(Cl)cc1 [Compound 12] | 369 nM |
